Laboratory results published in patent US10081632B2, “Substituted tetrahydropyrido[3′,2′:4,5]pyrrolo[1,2-α]pyrazine-2-carboxamides as RSK inhibitors” (Phoenix Molecular Designs, priority 2016, dated 2018).
Values belong to the molecule of their own block, whether it stands above or below them.

Legend:
4T1 cells [1] = assay: Monolayer growth inhibition, Alamar blue assay; type: cell-based; conditions: Mus musculus, 5 days, single dose on day 1
Description: (§1) In all instances a single dose was given on day 1 of the experiment.

HCC1143 cells [2] = assay: Monolayer growth inhibition, Alamar blue assay; type: cell-based; conditions: Homo sapiens, 5 days, single dose on day 1
Description: as §1

HCC1937 cells [3] = assay: Monolayer growth inhibition, Alamar blue assay; type: cell-based; conditions: Homo sapiens, 5 days, single dose on day 1
Description: as §1

JIMT-1 cells [4] = assay: Monolayer growth inhibition, Alamar blue assay; type: cell-based; conditions: Homo sapiens, 5 days, single dose on day 1
Description: as §1

MDA-MB-435 cells [5] = assay: Monolayer growth inhibition, Alamar blue assay; type: cell-based; conditions: Homo sapiens, 5 days, single dose on day 1
Description: as §1

MDA-MB-468 cells [6] = assay: Monolayer growth inhibition, Alamar blue assay; type: cell-based; conditions: Homo sapiens, 5 days, single dose on day 1
Description: as §1

PC3 cells [7] = assay: Monolayer growth inhibition, Alamar blue assay; type: cell-based; conditions: Homo sapiens, PC-3; PC3 (Prostate), 5 days, single dose on day 1
Description: as §1

SUM149 cells [8] = assay: Monolayer growth inhibition, Alamar blue assay; type: cell-based; conditions: Homo sapiens, 5 days, single dose on day 1
Description: as §1

SUM149-PTXR cells [9] = assay: Monolayer growth inhibition, Alamar blue assay; type: cell-based, Human; conditions: Homo sapiens; SUM149-PTXR (TNBC, BRCA Mutant), 5 days, single dose on day 1
Description: as §1

T47D cells [10] = assay: Monolayer growth inhibition, Alamar blue assay; type: cell-based, Human; conditions: Homo sapiens, T47D (ER/PR), 5 days, single dose on day 1
Description: as §1

All cell lines [11] = assay: Monolayer growth inhibition, Alamar blue assay, range over all cell lines; type: cell-based; conditions: 120 h; range of IC50 over all cell lines of the table; read-out: IC50 Values - Alamar Blue (5 Days), Range, All
Description: as §1

HCC1937 cells [12] = assay: Monolayer growth inhibition, crystal violet assay; type: cell-based; conditions: Homo sapiens, 5 days, single dose on day 1
Description: (§2) In all instances a single dose was given on day 1 of the experiment. […] Complete (100%) growth suppression was achievable with several of the compounds in multiple different cell lines.

JIMT-1 cells [13] = assay: Monolayer growth inhibition, crystal violet assay; type: cell-based; conditions: Homo sapiens, 5 days, single dose on day 1
Description: as §2

MDA-MB-468 cells [14] = assay: Monolayer growth inhibition, crystal violet assay; type: cell-based; conditions: Homo sapiens, 5 days, single dose on day 1
Description: as §2

T47D cells [15] = assay: Monolayer growth inhibition, crystal violet assay; type: cell-based; conditions: Homo sapiens, T47D (ER/PR), 5 days, single dose on day 1
Description: as §2

4T1 cells [16] = assay: Monolayer growth inhibition, crystal violet assay; type: cell-based; conditions: Mus musculus, 5 days, single dose on day 1
Description: as §1

HCC1143 cells [17] = assay: Monolayer growth inhibition, crystal violet assay; type: cell-based; conditions: Homo sapiens, 5 days, single dose on day 1
Description: as §1

MDA-MB-435 cells [18] = assay: Monolayer growth inhibition, crystal violet assay; type: cell-based; conditions: Homo sapiens; MDA-MB-435 (Melanoma), 5 days, single dose on day 1
Description: as §1

PC3 cells [19] = assay: Monolayer growth inhibition, crystal violet assay; type: cell-based; conditions: Homo sapiens, PC-3; PC3 (Prostate), 5 days, single dose on day 1
Description: as §1

SUM149 cells [20] = assay: Monolayer growth inhibition, crystal violet assay; type: cell-based; conditions: Homo sapiens, 5 days, single dose on day 1
Description: as §1

SUM149-PTXR cells [21] = assay: Monolayer growth inhibition, crystal violet assay; type: cell-based; conditions: Homo sapiens; SUM149-PTXR (TNBC, BRCA Mutant), 5 days, single dose on day 1
Description: as §1

All cell lines [22] = assay: Monolayer growth inhibition, crystal violet assay, range over all cell lines; type: cell-based; conditions: 120 h; range of IC50 over all cell lines of the table; read-out: IC50 Values - Crystal Violet (5 Days), Range, All
Description: as §2

4T1 cells [23] = assay: Soft agar growth inhibition assay; type: cell-based; conditions: Mus musculus, 4T1, 240 h, 4T1, 10 days; read-out: IC50 Values, 10 Days, Soft Agar
Method: Two agar (Alfa Aesar) solutions (0.8% w/v and 0.4% w/v) were prepared in ultrapure water. The 0.8% agar solution was mixed in equal volumes with 2× media previously prepared from powder (Life Technologies) following the manufacturer's instructions and filter sterilized. The 0.8% agar and media solution was added to 24 well plates (Mandel Scientific) at 500 μl per well. The plates were placed in a humidified incubator at 37° C. with 5% CO2. Next, the 0.4% agar solution was mixed in equal volumes with 2× media. Breast cancer cell lines were added to this solution to achieve a final concentration of 2×10^4 cells per well and […] was added to each well on top of the bottom agar and media layer. […] The plates were returned to the incubator for 10-32 days, with a re-dosing of compounds or DMSO every 7 days. After 10-32 days, colonies were counted in 3 different fields of view for each well.
Representative compounds described herein were tested in the soft agar growth inhibition assay against the 4T1 breast cancer cell line.

CD34+ cells = assay: Colony forming unit hematopoietic stem cell assay; type: cell-based, human; conditions: Homo sapiens, Hematopoietic stem cell, 336 h, CD34+ HSC, 14 days; read-out: IC50 Values - 14 days, CFU Assay
Method: The hematopoietic colony forming cell assay was conducted based on a protocol outlined by StemCell Technologies. […] Following the addition of CD34^+ cells isolated from human cord blood or peripheral blood (StemCell Technologies) at a final concentration of 5×10^2 cells per dish, the tubes were vortexed and allowed to stand for 5 minutes at room temperature. Next, the MethoCult mixtures were dispensed into 35 mm dishes (Corning Incorporated) through blunt end needles (StemCell Technologies) and 5 ml syringes (BD Biosciences) at a volume of 1.1 ml per dish. The medium was evenly distributed across the surface of each dish by gentle tilting and rotation. The dishes were then placed in a 100 mm culture dish (Grenier Bio-One) containing additional 35 mm dishes with sterile water to maintain humidity. […] The number of myeloid and erythroid derived colonies in both the treated and control dishes were counted and compared.

MDA-MB-231 cells [24] = assay: Monolayer growth inhibition, Alamar blue assay; type: cell-based; conditions: Homo sapiens; MDA-MB-231 (TNBC), 5 days, single dose on day 1
Description: as §1

MDA-MB-231 cells [25] = assay: Monolayer growth inhibition, crystal violet assay; type: cell-based; conditions: Homo sapiens; MDA-MB-231 (TNBC), 5 days, single dose on day 1
Description: as §1

[26] = HCC1937, HCC1937 (TNBC, BRCA Mutant)
[27] = SUM149, SUM149 (TNBC, BRCA Mutant)

IC50 (4T1 cells [1]; 4T1, 4T1 (TNBC)): 8.8 ± 2.1 µM
IC50 (HCC1143 cells [2]; HCC1143, HCC1143 (TNBC)): 3.6 ± 2.7 µM
IC50 (HCC1937 cells [3]; [26]): 9.7 ± 3.9 µM
IC50 (MDA-MB-435 cells [5]; MDA-MB-435, MDA-MB-435 (Melanoma)): 13.7 ± 3.4 µM
IC50 (MDA-MB-468 cells [6]; MDA-MB-468, MDA-MB-468 (TNBC)): 13.3 ± 4.1 µM
IC50 (PC3 cells [7]): 11.5 ± 3.4 µM
IC50 (T47D cells [10]; T47D): 7.8 ± 3.7 µM
IC50 (HCC1937 cells [12]; [26]): 12 ± 0.2 µM
IC50 (MDA-MB-468 cells [14]; MDA-MB-468, MDA-MB-468 (TNBC)): 11.3 ± 0.7 µM
IC50 (T47D cells [15]; T47D): 8.5 ± 0.7 µM
IC50 (4T1 cells [16]; 4T1, 4T1 (TNBC)): 6.9 ± 3 µM
IC50 (HCC1143 cells [17]; HCC1143, HCC1143 (TNBC)): 12.6 ± 3.4 µM
IC50 (MDA-MB-435 cells [18]): 8.2 ± 2.5 µM
IC50 (PC3 cells [19]): 5.9 ± 1.4 µM
IC50 (4T1 cells [23]): 3.8 µM
IC50 (CD34+ cells): 23.8 µM
SMILES: C[C@@H]1CNC(=O)c2cc3ccc(NC(=O)c4cnn(Cc5ccccc5)c4)nc3n21 [Compound 15, (R)-1-benzyl-N-(9-methyl-6-oxo-6,7,8,9-tetrahydropyrido[3′,2′:4,5]pyrrolo[1,2-a]pyrazin-2-yl)-1H-pyrazole-4-carboxamide]
IC50 (JIMT-1 cells [4]; JIMT-1, JIMT-1 (HER2)): 8.3 ± 1.8 µM
IC50 (SUM149 cells [8]; [27]): 11.7 ± 2.8 µM
IC50 (SUM149-PTXR cells [9]): 9.2 ± 3 µM
IC50 (All cell lines [11]): 3.6 to 21.3 µM
IC50 (JIMT-1 cells [13]; JIMT-1, JIMT-1 (HER2)): 11.2 ± 0.2 µM
IC50 (SUM149 cells [20]; [27]): 9.9 ± 3.1 µM
IC50 (SUM149-PTXR cells [21]): 8.8 ± 2.2 µM
IC50 (All cell lines [22]): 5.9 to 21 µM

IC50 (4T1 cells [1]; 4T1 (TNBC)): 20.6 ± 2.5 µM
IC50 (HCC1143 cells [2]; HCC1143 (TNBC)): 11.5 ± 3.6 µM
IC50 (HCC1937 cells [3]; HCC1937 (TNBC, BRCA Mutant)): 16.6 ± 11.5 µM
IC50 (MDA-MB-231 cells [24]): 25.6 ± 1.5 µM
IC50 (MDA-MB-435 cells [5]; MDA-MB-435 (Melanoma)): 10.5 ± 2.2 µM
IC50 (MDA-MB-468 cells [6]; MDA-MB-468 (TNBC)): 14.7 ± 4.1 µM
IC50 (PC3 cells [7]): 17.1 ± 8.7 µM
IC50 (T47D cells [10]): 13.5 ± 4.6 µM
IC50 (HCC1937 cells [12]; HCC1937 (TNBC, BRCA Mutant)): 19.9 ± 8.7 µM
IC50 (MDA-MB-468 cells [14]; MDA-MB-468 (TNBC)): 7.4 ± 1 µM
IC50 (T47D cells [15]): 7.7 ± 1.5 µM
IC50 (4T1 cells [16]; 4T1 (TNBC)): 15.8 ± 4.8 µM
IC50 (HCC1143 cells [17]; HCC1143 (TNBC)): 13.8 ± 4.3 µM
IC50 (MDA-MB-231 cells [25]): 17.2 ± 1.9 µM
IC50 (MDA-MB-435 cells [18]): 10.3 ± 3.5 µM
IC50 (PC3 cells [19]): 14.9 ± 6.6 µM
SMILES: C[C@@H]1CNC(=O)c2cc3ccc(NC(=O)c4cnn(Cc5cccc(N)c5)c4)nc3n21 [Compound 19, (R)-1-(3-aminobenzyl)-N-(9-methyl-6-oxo-6,7,8,9-tetrahydropyrido[3′,2′:4,5]pyrrolo[1,2-a]pyrazin-2-yl)-1H-pyrazole-4-carboxamide]
IC50 (JIMT-1 cells [4]; JIMT-1 (HER2)): 37.3 ± 9 µM
IC50 (SUM149 cells [8]; SUM149 (TNBC, BRCA Mutant)): 15.8 ± 6.4 µM
IC50 (SUM149-PTXR cells [9]): 14.1 ± 4.3 µM
IC50 (All cell lines [11]): 10.5 to 37.3 µM
IC50 (JIMT-1 cells [13]; JIMT-1 (HER2)): 34 ± 12.8 µM
IC50 (SUM149 cells [20]; SUM149 (TNBC, BRCA Mutant)): 11.1 ± 3.9 µM
IC50 (SUM149-PTXR cells [21]): 13 ± 1.3 µM
IC50 (All cell lines [22]): 7.4 to 34 µM
